Source: PubChem BioAssay AID1963848 (Molecular Pharmacology Branch, DTP, NCI, 2024)
pIC50: −log10 of the molar value.

Test system: 379773-124-R-J2-PDC spheroid viability
Test: Anticancer human tumor 379773-124-R-J2-PDC patient-derived endometrial carcinoma cell line growth inhibition [POLQ]
Conditions: spheroids with HUVEC and MSC; for pIC50: curve of first compound; for viability, T/C: stronger effect = lower value
Procedure, shortened: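 Three-cell-type spheroids modelling solid tumor plus stroma served as the readout system; POL inhibitors were tested individually and in combination, concentration ranges set by clinical Cmax where known.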

[1] = second compound 0.0316 µM, first compound 0.0316 µM
[2] = second compound 0.0316 µM, first compound 0.1 µM
[3] = second compound 0.0316 µM, first compound 0.316 µM
[4] = second compound 0.0316 µM, first compound 1 µM
[5] = second compound 0.1 µM, first compound 0.0316 µM
[6] = second compound 0.1 µM, first compound 0.1 µM
[7] = second compound 0.1 µM, first compound 0.316 µM
[8] = second compound 0.1 µM, first compound 1 µM
[9] = second compound 0.316 µM, first compound 0.0316 µM
[10] = second compound 0.316 µM, first compound 0.1 µM
[11] = second compound 0.316 µM, first compound 0.316 µM
[12] = second compound 0.316 µM, first compound 1 µM
[13] = second compound 1 µM, first compound 0.0316 µM
[14] = second compound 1 µM, first compound 0.1 µM
[15] = second compound 1 µM, first compound 0.316 µM
[16] = second compound 1 µM, first compound 1 µM
[17] = second compound 3.16 µM, first compound 0.0316 µM
[18] = second compound 3.16 µM, first compound 0.1 µM
[19] = second compound 3.16 µM, first compound 0.316 µM
[20] = second compound 3.16 µM, first compound 1 µM
[21] = second compound 10 µM, first compound 0.0316 µM
[22] = second compound 10 µM, first compound 0.1 µM
[23] = second compound 10 µM, first compound 0.316 µM
[24] = second compound 10 µM, first compound 1 µM
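Further: spheroids exposed to drugs for seven days before readout.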
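Wherever viability, T/C is given: percent viability relative to DMSO vehicle control taken as 100%.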

**Q.** Which results are given for COc1cccc(OCCCN)c1-c1cc(Nc2cnc(C#N)cn2)n[nH]1 + COC1C(OC(N)=O)C(O)C(Oc2ccc3c(O)c(NC(=O)c4ccc(O)c(CC=C(C)C)c4)c(=O)oc3c2C)OC1(C)C?
**A.** pIC50 (second compound 0.0316 µM): 8.35; pIC50 (second compound 0.1 µM): 8.45; pIC50 (second compound 0.316 µM): 8.46; pIC50 (second compound 1 µM): 8.35; pIC50 (second compound 3.16 µM): 8.42; pIC50 (second compound 10 µM): 8.42; viability, T/C (second compound 0.0316 µM, first compound 0.00316 µM): 69.1%; viability, T/C (second compound 0.0316 µM, first compound 0.01 µM): 3.94%; viability, T/C [1]: 2.78%; viability, T/C [2]: 2%; viability, T/C [3]: 1.77%; viability, T/C [4]: 1.34%; viability, T/C (second compound 0.1 µM, first compound 0.00316 µM): 54.7%; viability, T/C (second compound 0.1 µM, first compound 0.01 µM): 5.02%; viability, T/C [5]: 2.47%; viability, T/C [6]: 1.87%; viability, T/C [7]: 2.26%; viability, T/C [8]: 1.32%; viability, T/C (second compound 0.316 µM, first compound 0.00316 µM): 54.3%; viability, T/C (second compound 0.316 µM, first compound 0.01 µM): 4.98%; viability, T/C [9]: 2.58%; viability, T/C [10]: 1.9%; viability, T/C [11]: 1.7%; viability, T/C [12]: 0.97%; viability, T/C (second compound 1 µM, first compound 0.00316 µM): 69.2%; viability, T/C (second compound 1 µM, first compound 0.01 µM): 5.09%; viability, T/C [13]: 1.91%; viability, T/C [14]: 2%; viability, T/C [15]: 1.74%; viability, T/C [16]: 1.47%; viability, T/C (second compound 3.16 µM, first compound 0.00316 µM): 57.9%; viability, T/C (second compound 3.16 µM, first compound 0.01 µM): 5.31%; viability, T/C [17]: 2.5%; viability, T/C [18]: 2.18%; viability, T/C [19]: 1.81%; viability, T/C [20]: 1.54%; viability, T/C (second compound 10 µM, first compound 0.00316 µM): 58.8%; viability, T/C (second compound 10 µM, first compound 0.01 µM): 4.41%; viability, T/C [21]: 2.84%; viability, T/C [22]: 2.3%; viability, T/C [23]: 3.07%; viability, T/C [24]: 1.39%

**Q.** What does the source list for C=CC(=O)N1CCN(c2nc(=O)n(-c3c(C)ccnc3C(C)C)c3nc(-c4c(O)cccc4F)c(F)cc23)C(C)C1 (centres undefined) + Nc1ccc(C#CCN(C(=O)Cc2ncc(C(F)(F)F)cc2C(F)(F)F)c2ccc(F)cc2)nn1?
**A.** pIC50 (second compound 0.0316 µM): < 5.00; pIC50 (second compound 0.1 µM): < 5.00; pIC50 (second compound 0.316 µM): < 5.00; pIC50 (second compound 1 µM): < 5.00; pIC50 (second compound 3.16 µM): < 5.00; pIC50 (second compound 10 µM): < 5.00; viability, T/C [1]: 102%; viability, T/C [2]: 91.5%; viability, T/C [3]: 103%; viability, T/C [4]: 94.7%; viability, T/C (second compound 0.0316 µM, first compound 3.16 µM): 114%; viability, T/C (second compound 0.0316 µM, first compound 10 µM): 96.1%; viability, T/C [5]: 90%; viability, T/C [6]: 89.1%; viability, T/C [7]: 104%; viability, T/C [8]: 98.7%; viability, T/C (second compound 0.1 µM, first compound 3.16 µM): 92%; viability, T/C (second compound 0.1 µM, first compound 10 µM): 91.7%; viability, T/C [9]: 95.4%; viability, T/C [10]: 93.5%; viability, T/C [11]: 90.2%; viability, T/C [12]: 86.4%; viability, T/C (second compound 0.316 µM, first compound 3.16 µM): 94.1%; viability, T/C (second compound 0.316 µM, first compound 10 µM): 100%; viability, T/C [13]: 89.2%; viability, T/C [14]: 85.5%; viability, T/C [15]: 99.6%; viability, T/C [16]: 93%; viability, T/C (second compound 1 µM, first compound 3.16 µM): 98.8%; viability, T/C (second compound 1 µM, first compound 10 µM): 103%; viability, T/C [17]: 91.9%; viability, T/C [18]: 90.9%; viability, T/C [19]: 101%; viability, T/C [20]: 90.3%; viability, T/C (second compound 3.16 µM, first compound 3.16 µM): 95%; viability, T/C (second compound 3.16 µM, first compound 10 µM): 93.3%; viability, T/C [21]: 88.3%; viability, T/C [22]: 91.4%; viability, T/C [23]: 93.3%; viability, T/C [24]: 91.4%; viability, T/C (second compound 10 µM, first compound 3.16 µM): 94.9%; viability, T/C (second compound 10 µM, first compound 10 µM): 98.2%
